From US20240246984A1, “HETEROCYCLIC JAK INHIBITOR” (BEIJING INNOCARE PHARMA TECH CO., LTD., priority 2020, published 2024)
Read-outs that look alike come from different tables or passages of the source.

Columns and labels:
[1] = system: IL-12-induced IFN-γ secretion in NK92 cells; assay: Inhibition of IL-12-induced IFN-γ secretion in NK92 cells (ELISA); assay type: cell-based; conditions: Homo sapiens, IL-12 stimulation, 24 hours, read-out: IC50 (NK92IL12/IFN-γ)
Protocol: The effect of the compounds of the present invention on IFN-γ secretion in IL-12-induced NK92 cells was evaluated by an enzyme-linked immunosorbent assay (ELISA).
The assay principle was generally described below: IL-12R was mainly expressed in activated T-cells, NK cells (NK92 was an NK cell line), DC cells, and B-cells. When binding to IL-12, it activated the JAK2/TYK2 signal transduction pathway within NK cells and activated T lymphocytes, thereby inducing secretion of IFN-γ.
The compound was dissolved to 2.5 mM in DMSO, followed by a serial 4-fold dilution with DMSO to a minimum concentration of 0.31 μM. Each concentration was further diluted 50-fold with an FBS-free MEMα medium (Thermofisher. 12561-056).
NK92 cells (Nanjing Cobioer, CBP60980) were cultured in a complete MEMα medium containing 12.5% FBS (Ausbian, VS500T), 12.5% horse serum (Thermofisher, 16050-122), 0.02 mM folic acid (Sigma, F8758), 0.2 mM inositol (Sigma, 17850), 0.55 mM β-mercaptoethanol (Thermofish, 21985-023), 200 U/mL IL-2 (R&D Systems, 202-1L), and 100 U/mL penicillin-streptomycin mixed liquor (ThermoFisher, 15140122). When covering 80-90% of the culture container surface, the cells were dispersed and plated on a 96-well plate (ThermoFisher, 167425) with 100,000 cells per well (80 μL of the complete MEMα medium without IL-2). The 96-well plate was then incubated overnight in a 37° C., 5% CO2 incubator.
After overnight incubation, 10 μL of the compound and 10 μL of 50 ng/ml IL-12 (R &D Systems, 219-1L) were added to each well and mixed gently, and the 96-well plate was incubated in the 37° C., 5% CO2 incubator for additional 24 hours. The plate was centrifuged at 800 rpm for 10 minutes at room temperature and 50 μL of the supernatant from each well was transferred to another 96-well plate (Sigma, CLS3695) coated with anti-IFN-γ antibody. The amount of IFN-γ secretion was detected following the instruction from the Human IFN-γ DuoSet ELISA assay kit (R & D Systems, DY285B). In this assay, the group in which IL-12 and the test compound were replaced with the MEMα medium was the non-stimulated control group (100% inhibition), and the group with IL-12 and 0.2% DMSO was the stimulated control group (0% inhibition). The compound inhibition curve was plotted using XLfit software and the IC50 of its inhibition was calculated.

[2] = target: human recombinant TYK2 protein (Homo sapiens, UniProt P29597); assay: TYK2 activity inhibition assay (HTRF kinase detection); assay type: biochemical; conditions: 11.25 μM ATP substrate solution
Protocol: The effect of the compounds of the present invention on the activity of TYK2 was assessed by using an in vitro kinase detection assay.
The enzymatic activity of TYK2 was assessed by detecting the substrate phosphorylation level in a kinase reaction with a homogeneous time-resolved fluorescence (HTRF) kinase detection kit (Cisbio, 62TK0PEC). A reaction buffer contained an enzyme buffer (1×), 5 mM MgCl2, 1 mM DTT and 0.01% Brij35 from the kit; a human recombinant TYK2 protein (Carna Biosciences, 08-147) was diluted to a kinase reaction solution of 0.25 ng/μL with the reaction buffer; a substrate reaction solution contained 11.25 μM ATP and a biotin-labeled tyrosine kinase substrate diluted to 0.5 μM with the reaction buffer; a detection buffer contained 0.1 ng/μL Eu^3+ labeled cage antibody (Cisbio, 61T66KLB) and 25 nM streptavidin-labeled XL665 (Cisbio, 610SAXLB) in the reaction buffer; the compound was dissolved to 10 μM in DMSO, followed by a serial 4-fold dilution with DMSO to a minimum concentration of 0.061 nM. Each concentration was further diluted 40-fold with the reaction buffer. To a 384-well assay plate (Corning, 3674) were added 4 μL of the compound solutions having a series of concentrations and 2 μL of kinase reaction solutions. After being mixed evenly, the mixtures were incubated at room temperature for 15 minutes, and then 4 μL of the substrate reaction solutions were added. The reaction mixtures were incubated at room temperature for 40 minutes. Then the reaction mixtures were added with 10 μL of detection solutions, mixed evenly, and allowed to stand at room temperature for 30 minutes. An Envision plate reader (Perkin Elmer) was then used to measure the progress of the reaction at wavelengths of 620 nm and 665 nm. The signal value (absorbance at 665 nm/absorbance at 620 nm) was positively correlated with the degree of substrate phosphorylation, therefore the kinase activity of TYK2 was detected. In this assay, the group without TYK2 kinase protein was the 100% inhibition group, and the group with TYK2 kinase protein but without the test compound was the 0% inhibition group. The compound inhibition curve was plotted using XLfit software and the IC50 of its inhibition was calculated.

[3] = target: human recombinant JAK2 protein (Homo sapiens, UniProt O60674); assay: JAK2 activity inhibition assay (HTRF kinase detection); assay type: biochemical; conditions: 2.5 μM ATP substrate solution
Protocol: The effect of the compounds of the present invention on the activity of JAK2 was assessed by using an in vitro kinase detection assay.
The enzymatic activity of JAK2 was assessed by detecting the substrate phosphorylation level in a kinase reaction with a homogeneous time-resolved fluorescence (HTRF) kinase detection kit (Cisbio, 62TK0PEC). A reaction buffer contained an enzyme buffer (1×), 5 mM MgCl2, 1 mM DTT and 0.01% Brij35 from the kit; a human recombinant JAK2 protein (Carna Biosciences, 08-045) was diluted to a kinase reaction solution of 0.15 ng/μL with the reaction buffer; a substrate reaction solution contained 2.5 μM ATP and a biotin-labeled tyrosine kinase substrate diluted to 0.25 μM with the reaction buffer; a detection buffer contained 0.1 ng/μL Eu^3+ labeled cage antibody (Cisbio, 61T66KLB) and 12.5 nM streptavidin-labeled XL665 (Cisbio, 610SAXLB) in the reaction buffer; the compound was dissolved to 10 μM in DMSO, followed by a serial 4-fold dilution with DMSO to a minimum concentration of 0.061 nM. Each concentration was further diluted 40-fold with the reaction buffer. To a 384-well assay plate (Corning, 3674) were added 4 μL of the compound solutions having a series of concentrations and 2 μL of JAK2 kinase reaction solutions. After being mixed evenly, the mixtures were incubated at room temperature for 15 minutes, and then 4 μL of the substrate reaction solutions were added. The reaction mixtures were incubated at room temperature for 30 minutes. Then the reaction mixtures were added with 10 μL of detection solutions, mixed evenly, and allowed to stand at room temperature for 30 minutes. An Envision plate reader (Perkin Elmer) was then used to measure the progress of the reaction at wavelengths of 620 nm and 665 nm. The signal value (absorbance at 665 nm/absorbance at 620 nm) was positively correlated with the degree of substrate phosphorylation, therefore the kinase activity of JAK2 was detected. In this assay, the group without JAK2 kinase protein was the 100% inhibition group, and the group with JAK2 kinase protein but without the test compound was the 0% inhibition group. The compound inhibition curve was plotted using XLfit software and the IC50 of its inhibition was calculated.

[4] = Pharmacokinetic assay in mice (plasma and colon exposure); assay type: in vivo; conditions: fed female C57 mice, 25 mg/kg PO, 4 hours after dosing; for concentration at 4 h: mouse
Protocol: Test compounds were formulated into a 5 mg/mL dosing sample (suspension or solution) in a 20% HP-β-CD vehicle.
3 fed female C57 mice were each dosed 5 mL/kg by gavage (PO) at a dose of 25 mg/kg. Blood samples were collected 4 hours after dosing, and then animals were killed by CO2. Colons near the end of the rectum, approximately 4-6 cm in length, were dissected, rinsed with cold saline, blotted dry with absorbent paper, and weighed.
Concentrations of the test compounds in the plasma and intestinal homogenate sample were quantified by LC-MS/MS using an API-4500 mass spectrometer with a plasma limit of quantitation (LOQ) of 1 ng/mL.

[5] = colon homogenate, read-out: Colon exposure
[6] = plasma, LOQ 1 ng/mL, read-out: Plasma exposure

Row | IC50 [1] | IC50 [2] | IC50 [3] | concentration at 4 h [4, 5] | concentration at 4 h [4, 6] | Plasma exposure ([4]; plasma, LOQ 1 ng/mL) | Structure (SMILES)
1 | 65 nM | 0.1 nM | 0.6 nM | 2700 ng/g | 50 ng/mL | – | CC(C)(C(N)=O)c1ccc(Nc2nc(-c3c(F)cccc3F)n3cc[nH]c(=O)c23)cc1 [Compound 34, 2-(4-((3-(2,6-difluorophenyl)-8-oxo-7,8-dihydroimidazo[1,5-a]pyrazin-1-yl)amino)phenyl)-2-methylpropanamide]
2 | 318 nM | 0.1 nM | 0.8 nM | 12200 ng/g | – | BLOQ | O=C(c1ccc(Nc2nc(-c3c(F)cccc3F)n3cc[nH]c(=O)c23)cc1)N1CCNCC1 [Compound 30, 3-(2,6-difluorophenyl)-1-((4-(piperazine-1-carbonyl)phenyl)amino)imidazo[1,5-a]pyrazin-8(7H)-one]
3 | 75 nM | 0.1 nM | 0.7 nM | 3920 ng/g | 75 ng/mL | – | CN1CCN(C(=O)c2ccc(Nc3nc(-c4c(F)cccc4F)n4cc[nH]c(=O)c34)cc2)CC1 [Compound 29, 3-(2,6-difluorophenyl)-1-((4-(4-methylpiperazine-1-carbonyl)phenyl)amino)imidazo[1,5-a]pyrazin-8(7H)-one]
4 | 3480 nM | 0.4 nM | 0.6 nM | 5090 ng/g | 18 ng/mL | – | CC(C)(C(=O)N1CCNCC1)c1ccc(Nc2nc(-c3c(F)cccc3F)n3cc[nH]c(=O)c23)cc1 [Compound 36, 3-(2,6-difluorophenyl)-1-((4-(2-methyl-1-oxo-1-(piperazin-1-yl)propan-2-yl)phenyl)amino)imidazo[1,5-a]pyrazin-8(7H)-one]

Continued, compound first:

Row | Structure (SMILES) | IC50 [1] | IC50 [2] | IC50 [3] | concentration at 4 h [4, 5] | concentration at 4 h [4, 6] | Plasma exposure ([4]; plasma, LOQ 1 ng/mL)
5 | O=C(c1ccc(Nc2nc(-c3c(F)cccc3F)n3cc[nH]c(=O)c23)cc1)N1CCOCC1 [Compound 1, 3-(2,6-difluorophenyl)-1-((4-(morpholine-4-carbonyl)phenyl)amino)imidazo[1,5-a]pyrazin-8(7H)-one] | 57 nM | 0.2 nM | 0.3 nM | 5210 ng/g | 249 ng/mL | –
6 | NC(=O)c1ccc(Nc2nc(-c3c(F)cccc3Cl)n3cc[nH]c(=O)c23)cc1 [Compound 28, 4-((3-(2-chloro-6-fluorophenyl)-8-oxo-7,8-dihydroimidazo[1,5-a]pyrazin-1-yl)amino)benzamide] | 38 nM | 0.03 nM | 0.6 nM | 2850 ng/g | 15 ng/mL | –
7 | Cn1cc(Nc2nc(-c3c(F)cccc3Cl)n3cc[nH]c(=O)c23)cn1 [Compound 26, 3-(2-chloro-6-fluorophenyl)-1-((1-methyl-1H-pyrazol-4-yl)amino)imidazo[1,5-a]pyrazin-8(7H)-one] | 149 nM | 0.7 nM | 2.9 nM | – | – | –
